Measurements as given in US9751919B2, “Antimicrobial compositions comprising a hyaluronic acid binding peptide and a β-lactam antibiotic” (priority 2012, dated 2017).
Values joined by “and” are separate entries in the source; they are usually repeats but may differ in a detail not shown here. Identical values can stand only once. “Also recorded” adds a separate entry of the source.

Tests used:
VISA = test: MIC (CLSI broth dilution), agent alone; assay type: cell-based, Staphylococcus aureus; set-up: unit: µg/mL
Procedure: (§1) VISA (strains 92, 95 and 96), VRSA (strains 105 and 106) and E. coli (strain 69717) isolates were also tested. One MSSA was used as a control. All MICs were assessed using CLSI guidelines. Also assessed was the activity of cefazolin, ceftriazone, meropenem, and a piperacillin/tazobactam combination antibiotic. Minimum inhibitory concentration (MIC) is the lowest concentration of an antimicrobial that will inhibit the visible growth of a microorganism after incubation.
(§2) Antimicrobial Susceptibility Testing: A custom designed panel of antimicrobials was created. The panel included: PEP35, penicillin, piperacillin/tazobactam, cefazolin, ceftriaxone, meropenem, clarithromycin, clindamycin, gentamicin, amikacin, vancomycin, ciprofloxacin, levofloxacin, moxifloxacin, linezolid, trimethoprim/sulfamethoxazole and doxycycline. These agents were obtained as laboratory grade powders from their respective manufacturers. Stock solutions were prepared and dilutions made as described by the Clinical Laboratory Standards Institute (2005 CLSI). Following two subcultures from frozen stock the MICs of the antimicrobial agents for the isolates were determined by the CLSI 2005 approved broth macrodilution method. Briefly, test tubes containing doubling antibiotic dilutions (2 ml per tube) of cation adjusted Mueller-Hinton broth (eg. for Enterobacteriaceae) with or without lysed horse blood (2-5% V/V) [eg. for S. pneumoniae] were inoculated to achieve a final concentration of approximately 5×10^5 CFU/ml and incubated in ambient air for 24 hours prior to reading. Colony counts were performed periodically to confirm inocula. Quality control was performed every two weeks using a variety of ATCC QC organisms including; S. aureus 29213, E. faecalis 29212, E. coli 25922 and P. aeruginosa 27853. For all antimicrobials as well as PEP35, CLSI criteria were used.
(§3) One MSSA was used as a control. All MICs were assessed using CLSI guidelines.

HA-MRSA [1] = test: Antibiotic MIC with fixed concentration of peptide; assay type: cell-based, Staphylococcus aureus; conditions: HA-MRSA strains; Table 13
Procedure: as §3
(§4) One MS SA and ATCC reference strains were used as controls. All MICs were assessed using CLSI guidelines.

CA-MRSA [2] = test: Antibiotic MIC with fixed concentration of peptide; assay type: cell-based, Staphylococcus aureus; conditions: versus CA-MRSA; Table 13
Procedure: as §3, §4

VRSA [3] = test: Antibiotic MIC with fixed concentration of peptide; assay type: cell-based, Staphylococcus aureus; conditions: VISA and VRSA; Table 13
Procedure: as §3

HA-MRSA [4] = test: MIC (CLSI broth dilution), agent alone; assay type: cell-based, Staphylococcus aureus; conditions: agent alone
Procedure: as §1
as §2, with “The panel included: PEP35, penicillin, piperacillin/tazobactam, cefazolin, ceftriaxone, meropenem, clarithromycin, clindamycin, gentamicin, amikacin, vancomycin, ciprofloxacin, levofloxacin, moxifloxacin, linezolid, trimethoprim/sulfamethoxazole and doxycycline.” left out, “27853.” for “27853. For all antimicrobials as well as PEP35, CLSI criteria were used.”
as §3, §4

CA-MRSA [5] = test: MIC (CLSI broth dilution), agent alone; assay type: cell-based, Staphylococcus aureus; conditions: agent alone
Procedure: as §1
as §2, with “The panel included: PEP35, penicillin, piperacillin/tazobactam, cefazolin, ceftriaxone, meropenem, clarithromycin, clindamycin, gentamicin, amikacin, vancomycin, ciprofloxacin, levofloxacin, moxifloxacin, linezolid, trimethoprim/sulfamethoxazole and doxycycline.” left out, “27853.” for “27853. For all antimicrobials as well as PEP35, CLSI criteria were used.”
as §3, §4

MSSA = test: MIC (CLSI broth dilution), agent alone; assay type: cell-based, Staphylococcus aureus; conditions: MSSA 79333, agent alone
Procedure: as §1
as §2, with “The panel included: PEP35, penicillin, piperacillin/tazobactam, cefazolin, ceftriaxone, meropenem, clarithromycin, clindamycin, gentamicin, amikacin, vancomycin, ciprofloxacin, levofloxacin, moxifloxacin, linezolid, trimethoprim/sulfamethoxazole and doxycycline.” left out, “27853.” for “27853. For all antimicrobials as well as PEP35, CLSI criteria were used.”
as §3, §4

E. coli = test: MIC (CLSI broth dilution), agent alone; assay type: cell-based, Escherichia coli; conditions: agent alone
Procedure: as §1, §2, §4

[6] = system: MRSA, VISA, VRSA and E. coli; test: Checkerboard assay, panel statement; assay type: cell-based; conditions: with β-lactams versus MRSA, VISA, VRSA and E. coli
Procedure: Checkerboard assays were carried out as described by Bonapace et al.
Diagnostic Microbiology and Infectious Diseases 2002; 44:363-366. In brief, checkerboard assays were performed in 96 well microtitre trays using an 8-by-8 well configuration. […] 96-well custom designed microtitre plates contained 100 ul/well of cation adjusted Mueller-Hinton broth (eg. for Enterobacteriaceae) with or without lysed horse blood (2-5% V/V) [eg. for S. pneumoniae] and were inoculated to achieve a final concentration of approximately 5×10^5 CFU/ml and incubated in ambient air for 24 hours prior to reading. Colony counts were performed periodically to confirm inocula. Quality control was performed every two weeks using a variety of ATCC QC organisms including; S. pneumoniae 49619, S. aureus 29213, E. faecalis 29212, E. coli 25922 and P. aeruginosa 27853. […] All peptides were assessed for synergy with β-lactams and vancomycin. For all antimicrobials as well as the peptides, CLSI criteria were used.
The fractional inhibitory concentration index (FIC index) was used to interpret synergy, antagonism or additivity/indifference. FIC index=FIC of drug A+FIC of drug B where:
The FIC of drug A and drug B was calculated as follows, FIC drug A=MIC of drug A in combination/MIC of drug A alone and FIC of drug B=MIC of drug B in combination/MIC of drug B alone. Synergy was defined as FIC index ≦0.5, additivity/indifference defined as a FIC between 0.5 and 4 and antagonism defined as an FIC index >4.
The fractional inhibitory concentration index (FIC index) was used to interpret synergy, antagonism or additivity/indifference. FIC index=FIC of drug A+FIC of drug B where the FIC of drug A and drug B was calculated as follows, FIC drug A=MIC of drug A in combination/MIC of drug A alone and FIC of drug B=MIC of drug B in combination/MIC of drug B alone. Synergy was defined as FIC index ≦0.5, additivity/indifference defined as an FIC of between 0.5 and 4 and antagonism defined as an FIC index >4.

VRSA [7] = test: MIC (CLSI broth dilution), agent alone; assay type: cell-based, Staphylococcus aureus; set-up: unit not given beside the values
Procedure: as §1, §2, §3

[8] = system: MRSA, VISA, VRSA and E. coli; test: MIC, agent alone, panel statement; assay type: cell-based; conditions: versus MRSA, VISA, VRSA and E. coli
Procedure: as §1, §2

For “LKQKIKHVVKLKVVVKLRSQLAKKKQS (hybPEP35-1 conservative substitution human peptide variant) [human peptide variant of PEP35 with conservative substitutions]”, the MIC (VISA; VISA 92) was >2048/>2048, the MIC (VISA; VISA 95) was >2048/2048 and the MIC (VISA; VISA 96, in µg/mL) was 1024. For the same sequence, the MIC (VISA; VISA 96, listed as hybPEP35, in µg/mL) was 1024 and 2048, the “synergy with β-lactams (in words)” value (HA-MRSA [1]) was “weak synergy; also recorded: stronger synergy” and the “synergy with β-lactams (in words)” value (CA-MRSA [2]) was “Strong synergy”. For the same sequence, the “synergy with β-lactams (in words)” value (VRSA [3]) was “mild to strong”, the MIC (HA-MRSA [4]; HA-MRSA 70798 (USA100/800), in µg/mL) was > 2048 and 1024 and the MIC (HA-MRSA [4]; HA-MRSA 77090 (USA100/800), in µg/mL) was 1024 and 512. For the same sequence, the MIC (HA-MRSA [4]; HA-MRSA 77098 (USA100/800)) was “≧2048/2048^”, the MIC (CA-MRSA [5]; CA-MRSA 69615 (USA400)) was 1024/1024 and the MIC (CA-MRSA [5]; CA-MRSA 70857 (USA400)) was 1024/1024. For the same sequence, the MIC (MSSA) was 128/128, the MIC (MSSA; in µg/mL) was 256 and the MIC (E. coli; E. coli 69716, listed as hybPEP35-1, in µg/mL) was 64. For the same sequence, the MIC (E. coli; E. coli 69716, listed as hybPEP35, in µg/mL) was 128 and 64, the MIC (E. coli; E. coli 70752) was 64/64 and the MIC (E. coli; E. coli 70752, in µg/mL) was 32. The “synergistic activity (in words)” value [6] was “synergistic activity”, the MIC (VRSA [7]; VRSA 105) was 128/128 and the MIC (VRSA [7]; VRSA 105, in µg/mL) was 256 and 128. For the same sequence, the MIC (VRSA [7]; VRSA 106, in µg/mL) was 256, the MIC (VRSA [7]; VRSA 106, listed as hybPEP35, in µg/mL) was 128 and 256 and the “activity (in words)” value [8] was “no activity; also recorded: not active”.
